# Where two headings read alike, the source gives them in different places. Marks after values point to notes of the source that are not given here.
# Key:
# SERT [1] = target: T1, SERT (Homo sapiens, UniProt P31645); assay: Stereoselective uptake into SERT-overexpressing HEK293 cells; details: for Km: read-out: Km ± SEM, net uptake minus empty vector control;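 on all read-outs here: uptake into HEK293 cells stably expressing human SERT over 2 min, enantiomers measured in cell lysate by chiral HPLC-MS/MS, normalized to total protein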
# OCT2 [2] = target: T2, OCT2 (Homo sapiens, UniProt O15244); assay: Stereoselective uptake into OCT2 (wild-type)-overexpressing HEK293 cells; details: for Clint ± SEM / selectivity ratio at 2 min: OCT2; for Clint ± SEM: quotient of vmax over Km; for selectivity ratio at 2 min: human, ratio between enantiomers
# T2 sequence (O15244 1-555 S270A): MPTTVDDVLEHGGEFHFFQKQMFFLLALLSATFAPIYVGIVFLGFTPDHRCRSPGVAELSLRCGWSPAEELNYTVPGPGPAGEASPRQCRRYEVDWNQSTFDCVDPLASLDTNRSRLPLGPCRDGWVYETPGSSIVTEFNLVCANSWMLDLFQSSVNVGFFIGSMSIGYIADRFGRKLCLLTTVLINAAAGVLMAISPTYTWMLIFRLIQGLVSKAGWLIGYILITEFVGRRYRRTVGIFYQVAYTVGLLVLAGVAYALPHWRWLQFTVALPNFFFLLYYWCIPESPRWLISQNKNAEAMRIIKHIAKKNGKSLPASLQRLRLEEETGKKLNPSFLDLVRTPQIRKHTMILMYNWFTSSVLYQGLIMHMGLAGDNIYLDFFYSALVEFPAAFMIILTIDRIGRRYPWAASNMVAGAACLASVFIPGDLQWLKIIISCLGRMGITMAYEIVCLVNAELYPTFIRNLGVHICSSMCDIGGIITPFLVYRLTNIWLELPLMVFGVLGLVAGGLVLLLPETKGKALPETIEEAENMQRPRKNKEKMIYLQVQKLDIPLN
# DAT = DAT (Homo sapiens, UniProt Q01959); assay: Stereoselective uptake into DAT-overexpressing HEK293 cells; details: for Clint ± SEM: quotient of vmax over Km; for Vmax ± SEM / Km: HEK293 cells overexpressing human DAT, racemic substrate, two minutes; for Vmax ± SEM: net uptake; for Km: read-out: Km ± SEM, net uptake minus empty vector control;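 on all read-outs here: intracellular accumulation measured by chiral HPLC-MS/MS in stably transfected HEK293 cells, normalized to total protein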
# Description: (§1) All transport experiments were carried out in HEK293 cells stably overexpressing human MATs or OCTs. […] All cells were regularly cultivated in DMEM supplemented with 10% (v/v) FCS, penicillin (100 U/mL) and streptomycin (100 μg/mL)and kept in culture for no longer than 30 passages.
# (§2) For the uptake experiments, 300,000 cells were plated in poly-D-lysine precoated 24-well plates 48 h ahead of the transport experiment. On the day of experiment, cells were initially washed once with 37 °C pre-warmed HBSS+ (Hanks buffered salt solution supplemented with 10 mM HEPES) and subsequently incubated with the substrates dissolved in pre-warmed HBSS+ for exactly two minutes. Incubation was stopped by adding ice-cold HBSS+ followed by two washing steps. After this, cells were lysed with 80% acetonitrile containing 10 ng/mL milnacipran as internal standard for high-performance liquid chromatography coupled to tandem mass spectrometry (HPLC-MS/MS) analysis. For every experiment, two additional wells per cell line were lysed using RIPA buffer for protein quantification. Total protein was quantified using the bicinchoninic acid assay [42]. This was later used for normalization of the uptake data.
# (§3) Intracellularly accumulated test substances were quantified by HPLC-MS/MS analysis using a Shimadzu Nexera HPLC system with a SIL-30AC autosampler, a CTO-20AC column oven, a LC-30AD pump, and a CBM-20A controller (Shimadzu, Kyoto, Japan). Stereoselective chromatography was carried out on a [sequence] CBH HPLC column (100 × 3 mm inner dimension with 5 μM particle size; Sigma-Aldrich, Darmstadt, Germany) with a corresponding 10 × 3 mm guard column. Reversed phased chromatography was carried out using an ammonium acetate (NH4Ac) buffered aqueous mobile phase with isopropyl alcohol (IPA) as organic solvent. […] The order of elution of the enantiomers was obtained from available reference literature [43] or by applying enantiopure reference compounds to the chiral HPLC. […] Given the structural similarity of the investigated substances and the fact that separation was performed on the same column with almost identical mobile phases, we assume that this order of elution for our compound set is always the (R)- before the (S)-enantiomer.
# (§4) Detection was performed with an API 4000 tandem mass spectrometer (AB SCIEX, Darmstadt, Germany) operating in multiple-reaction-monitoring mode. Quantification was performed using the Analyst 1.6.2 software (AB SCIEX, Darmstadt, Germany) and quantified by comparison to standard curves with known concentrations.
# (§5) All uptake data were normalized to protein content to account for variation in the number of seeded sells. Transporter-mediated net uptake was calculated by subtracting uptake into empty vector-transfected control cells from uptake into transporter-transfected cells. Kinetic parameters were then determined after non-linear regression following the Michaelis–Menten equation (v = vmax × [S]/(Km + [S])) using GraphPad Prism (Version 5.01 for Windows, GraphPad Software, La Jolla, CA, USA). Vmax refers to the maximum transport velocity and Km is defined as the substance concentration required to reach half of vmax. The intrinsic clearance Clint was calculated as the quotient of vmax over Km.
# NET = NET (Homo sapiens, UniProt P23975); assay: Stereoselective uptake into NET-overexpressing HEK293 cells; details: for Vmax ± SEM / Km: HEK293 cells overexpressing human NET, racemic substrate, two minutes; for Vmax ± SEM: net uptake; for Clint ± SEM: quotient of vmax over Km; for Km: read-out: Km ± SEM, net uptake minus empty vector control;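 on all read-outs here: intracellular enantiomers quantified in cell lysates by chiral HPLC-MS/MS after a 2 min substrate incubation, with uptake normalized to total cellular protein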
# OCT1 = target: T3, OCT1 (Homo sapiens, UniProt O15245); assay: Stereoselective uptake into OCT1-overexpressing HEK293 cells; details: for Clint ± SEM: quotient of vmax over Km; for selectivity ratio at 2 min: human;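 on all read-outs here: enantiomers quantified inside cells by chiral HPLC-MS/MS, uptake normalized to total protein from bicinchoninic acid assay, substrates applied in HBSS+ buffer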
# T3 sequence (O15245 1-554): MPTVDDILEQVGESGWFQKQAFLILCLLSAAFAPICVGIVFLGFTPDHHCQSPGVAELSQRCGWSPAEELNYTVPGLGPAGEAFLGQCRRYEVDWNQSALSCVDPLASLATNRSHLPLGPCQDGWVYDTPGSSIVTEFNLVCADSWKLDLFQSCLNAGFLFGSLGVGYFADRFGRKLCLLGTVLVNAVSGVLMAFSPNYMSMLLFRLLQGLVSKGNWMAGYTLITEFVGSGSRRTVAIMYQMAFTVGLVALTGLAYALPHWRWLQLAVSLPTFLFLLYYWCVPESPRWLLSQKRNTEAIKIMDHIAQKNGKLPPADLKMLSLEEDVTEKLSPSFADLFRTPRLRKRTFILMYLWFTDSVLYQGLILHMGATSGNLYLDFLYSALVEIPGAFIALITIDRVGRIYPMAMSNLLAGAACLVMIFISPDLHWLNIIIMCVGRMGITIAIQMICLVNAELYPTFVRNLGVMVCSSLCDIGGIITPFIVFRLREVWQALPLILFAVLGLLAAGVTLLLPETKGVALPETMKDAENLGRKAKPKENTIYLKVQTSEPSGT
# SERT [3] = target: T1, SERT; assay: in vitro
# [4] = tested on: OCT2 wild-type versus A270S variant; assay: in vitro; details: human, Transporter selectivity, OCT2 wild-type versus A270S, 100 μM racemic substance, two minutes; given as for WT
# SERT [5] = target: T1, SERT
# OCT3 = target: T4, OCT3 (Homo sapiens, UniProt O75751); assay: Stereoselective uptake into OCT3-overexpressing HEK293 cells; details: for Clint ± SEM: quotient of vmax over Km; for Stereoselectivity Vmax: given as for (R) or for 1; for Stereoselectivity Km: given as for (R) or for 1 (first-eluting);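 on all read-outs here: intracellular accumulation in HEK293 cells measured by chiral HPLC-MS/MS after a 2 min substrate exposure at 37 °C, uptake normalized to total protein (bicinchoninic acid assay)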
# T4 sequence (O75751 1-556): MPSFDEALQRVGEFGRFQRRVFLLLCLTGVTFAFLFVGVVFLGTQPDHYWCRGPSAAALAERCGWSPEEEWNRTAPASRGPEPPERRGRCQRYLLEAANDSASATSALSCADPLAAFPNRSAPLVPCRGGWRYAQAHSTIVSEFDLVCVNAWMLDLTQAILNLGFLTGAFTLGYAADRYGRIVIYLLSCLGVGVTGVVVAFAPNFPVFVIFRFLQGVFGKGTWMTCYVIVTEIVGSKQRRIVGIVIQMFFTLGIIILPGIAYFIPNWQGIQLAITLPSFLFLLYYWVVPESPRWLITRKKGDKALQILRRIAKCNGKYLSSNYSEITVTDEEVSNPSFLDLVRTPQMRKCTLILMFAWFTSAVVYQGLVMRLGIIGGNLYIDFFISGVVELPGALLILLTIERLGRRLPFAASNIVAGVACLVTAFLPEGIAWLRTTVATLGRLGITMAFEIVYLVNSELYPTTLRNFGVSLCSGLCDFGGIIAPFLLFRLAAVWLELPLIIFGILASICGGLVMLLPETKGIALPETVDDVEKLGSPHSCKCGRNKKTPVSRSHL
# Description: as §1, §2, §3, §4, §5
# OCT2 [6] = target: T5, OCT2 (Homo sapiens, UniProt O15244, S270A); assay: Stereoselective uptake into OCT2 (wild-type)-overexpressing HEK293 cells; details: OCT2, ratio between enantiomers
# T5 sequence (O15244 1-555 S270A): T2 sequence (O15244 1-555 S270A)
# OCT2 A270S variant = assay: Stereoselective uptake into OCT2 A270S variant-overexpressing HEK293 cells; details: OCT2 wild-type versus A270S, 100 μM racemic substance, two minutes; given as for WT;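 further: uptake into HEK293 cells stably overexpressing human OCT2 variants, intracellular enantiomers quantified by chiral HPLC-MS/MS and normalized to total protein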
# [7] = HEK293 cells overexpressing human SERT, racemic substrate, two minutes
# [8] = OCT3, ratio between enantiomers
# [9] = DAT, ratio between enantiomers, given as for (S) or for 2
# [10] = NET, ratio between enantiomers, given as for (S) or for 2
# [11] = OCT1, ratio between enantiomers, given as for (S) or for 2
# T1 sequence (P31645 whole entry): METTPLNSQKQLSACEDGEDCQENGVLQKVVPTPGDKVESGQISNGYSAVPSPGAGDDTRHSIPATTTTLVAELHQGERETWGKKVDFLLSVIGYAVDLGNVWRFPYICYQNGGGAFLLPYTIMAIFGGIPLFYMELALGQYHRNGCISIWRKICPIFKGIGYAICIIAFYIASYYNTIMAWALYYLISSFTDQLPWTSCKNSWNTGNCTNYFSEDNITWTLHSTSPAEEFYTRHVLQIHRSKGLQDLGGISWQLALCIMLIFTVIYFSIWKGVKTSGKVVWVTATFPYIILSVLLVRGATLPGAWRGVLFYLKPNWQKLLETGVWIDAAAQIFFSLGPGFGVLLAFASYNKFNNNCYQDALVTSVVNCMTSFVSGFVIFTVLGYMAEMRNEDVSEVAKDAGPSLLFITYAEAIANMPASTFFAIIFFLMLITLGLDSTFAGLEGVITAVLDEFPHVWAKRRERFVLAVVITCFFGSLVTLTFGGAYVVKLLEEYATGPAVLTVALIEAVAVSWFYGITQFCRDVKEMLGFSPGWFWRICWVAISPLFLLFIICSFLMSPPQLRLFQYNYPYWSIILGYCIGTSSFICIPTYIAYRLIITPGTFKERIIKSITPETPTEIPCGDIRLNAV
# DAT, sequence (Q01959 whole entry): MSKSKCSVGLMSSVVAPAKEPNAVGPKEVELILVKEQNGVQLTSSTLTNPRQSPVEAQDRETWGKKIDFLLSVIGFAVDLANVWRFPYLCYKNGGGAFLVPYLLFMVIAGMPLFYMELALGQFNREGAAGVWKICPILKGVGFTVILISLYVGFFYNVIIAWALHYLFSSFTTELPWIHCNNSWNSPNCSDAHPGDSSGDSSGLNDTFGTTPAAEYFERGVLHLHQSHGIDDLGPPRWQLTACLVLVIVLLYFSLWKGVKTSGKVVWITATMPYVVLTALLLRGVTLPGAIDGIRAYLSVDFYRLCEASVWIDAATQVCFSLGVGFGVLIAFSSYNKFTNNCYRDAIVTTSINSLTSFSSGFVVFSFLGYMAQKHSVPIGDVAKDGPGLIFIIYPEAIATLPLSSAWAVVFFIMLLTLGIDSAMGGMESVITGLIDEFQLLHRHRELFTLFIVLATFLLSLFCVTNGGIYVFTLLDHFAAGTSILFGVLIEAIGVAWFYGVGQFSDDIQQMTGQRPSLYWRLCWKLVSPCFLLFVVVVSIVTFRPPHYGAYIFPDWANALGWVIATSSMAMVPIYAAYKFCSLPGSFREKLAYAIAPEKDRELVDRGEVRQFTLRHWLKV
# NET, sequence (P23975 whole entry): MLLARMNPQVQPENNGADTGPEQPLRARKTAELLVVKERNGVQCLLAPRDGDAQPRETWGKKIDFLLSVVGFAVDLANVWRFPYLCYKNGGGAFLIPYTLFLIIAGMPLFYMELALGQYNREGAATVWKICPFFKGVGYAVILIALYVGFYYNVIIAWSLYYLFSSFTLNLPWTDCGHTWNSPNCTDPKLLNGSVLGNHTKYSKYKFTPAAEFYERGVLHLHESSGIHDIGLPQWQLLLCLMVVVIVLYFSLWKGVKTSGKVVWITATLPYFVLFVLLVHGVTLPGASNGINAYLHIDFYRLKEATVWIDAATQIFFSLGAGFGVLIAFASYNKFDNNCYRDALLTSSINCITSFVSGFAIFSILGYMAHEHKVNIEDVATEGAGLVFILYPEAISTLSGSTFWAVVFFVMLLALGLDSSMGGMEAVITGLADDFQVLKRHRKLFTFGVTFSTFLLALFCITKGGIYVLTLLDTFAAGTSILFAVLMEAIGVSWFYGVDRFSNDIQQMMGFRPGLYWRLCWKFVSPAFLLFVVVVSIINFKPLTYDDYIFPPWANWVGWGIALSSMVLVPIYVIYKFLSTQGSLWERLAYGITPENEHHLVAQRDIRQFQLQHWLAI
smiles,measurement,setting,value
CNC[C@@H](O)c1cccc(O)c1 [(S)-Phenylephrine],Stereoselectivity Km,SERT [1],1.89 fold
same,Stereoselectivity Vmax,SERT [1],1.49 fold
same,Vmax ± SEM,SERT [1],529
same,Km,SERT [1]; [7],173 µM
same,Clint ± SEM,OCT2 [2],27.3 mL × g Protein^−1 × min^−1
same,selectivity ratio at 2 min,"OCT2 [2]; Stereoselectivity ClInt, given as for (S) or for 2",1.02
same,selectivity ratio at 2 min,"OCT2 [2]; Stereoselectivity Km, given as for (R) or for 1 (first-eluting)",1.89
same,selectivity ratio at 2 min,"OCT2 [2]; Stereoselectivity Vmax, given as for (R) or for 1",2.04
same,Clint ± SEM,DAT; DAT,11.6 mL × g Protein^−1 × min^−1
same,Stereoselectivity Vmax,"DAT; DAT, ratio between enantiomers, given as for (R) or for 1",1.56 fold
same,Stereoselectivity Km,"DAT; DAT, ratio between enantiomers, given as for (R) or for 1 (first-eluting)",1.06 fold
same,Vmax ± SEM,DAT,392 pmol × mg Protein^−1 × min^−1
same,selectivity ratio at 2 min,DAT; human,1.48
same,Km,DAT,33.7 µM
same,Vmax ± SEM,NET,220 pmol × mg Protein^−1 × min^−1
same,Clint ± SEM,NET; NET,52.3 mL × g Protein^−1 × min^−1
same,Stereoselectivity Vmax,"NET; NET, ratio between enantiomers, given as for (R) or for 1",1.79 fold
same,selectivity ratio at 2 min,NET; human,1.43
same,Km,NET,4.16 µM
same,Clint ± SEM,OCT1; OCT1,8.85 mL × g Protein^−1 × min^−1
same,selectivity ratio at 2 min,OCT1; Stereoselectivity ClInt,1.11
same,selectivity ratio at 2 min,"OCT1; Stereoselectivity Km, OCT1, ratio between enantiomers, given as for (S) or for 2 (second-eluting)",1.02
same,selectivity ratio at 2 min,"OCT1; Stereoselectivity Vmax, OCT1, ratio between enantiomers, given as for (R) or for 1",1.08
same,selectivity ratio,SERT [3],2.82
same,"selectivity ratio at 2 min, 100 μM",[4],1.13
same,Clint ± SEM,SERT [5],11.6
same,Clint ± SEM,OCT3; OCT3,4.23 mL × g Protein^−1 × min^−1
same,Stereoselectivity Vmax,OCT3; [8],3.33 fold
same,Stereoselectivity Km,OCT3; [8],1.19 fold
same,selectivity ratio at 2 min,OCT3; human,2.79
NC[C@H](O)c1ccc(O)c(O)c1 [(R)-Norepinephrine],Stereoselectivity Km,SERT [1],1.01-fold for (R)
same,Stereoselectivity Vmax,SERT [1],1.79-fold for (R) **
same,Vmax ± SEM,"SERT [1]; HEK293 cells overexpressing human SERT, racemic substrate, two minutes, net uptake",727 ± 60 pmol × mg Protein^−1 × min^−1
same,Clint ± SEM,"SERT [1]; SERT, quotient of vmax over Km",4.12 ± 1.31 mL × g Protein^−1 × min^−1
same,Km,SERT [1]; [7],176 ± 41.7 µM
same,Stereoselectivity ClInt,OCT2 [6]; given as for (R) or for 1,1.64-fold for (R)
same,Stereoselectivity Vmax,OCT2 [6]; given as for (R) or for 1,2.17-fold for (R) **
same,Stereoselectivity Km,OCT2 [6]; given as for (R) or for 1 (first-eluting),1.32-fold for (R)
same,Vmax ± SEM,"OCT2 [2]; HEK293 cells overexpressing human OCT2, racemic substrate, two minutes, net uptake",6603 ± 664 pmol × mg Protein^−1 × min^−1
same,Clint ± SEM,OCT2 [2],3.81 ± 1.30 mL × g Protein^−1 × min^−1
same,Km,"OCT2 [2]; read-out: Km ± SEM, HEK293 cells overexpressing human OCT2, racemic substrate, two minutes, net uptake minus empty vector control",1730 ± 418 µM
same,Clint ± SEM,DAT; DAT,138.8 ± 19.7 mL × g Protein^−1 × min^−1
same,Stereoselectivity ClInt,DAT; [9],1.12-fold for (S)
same,Stereoselectivity Vmax,DAT; [9],1.47-fold for (S) ***
same,Stereoselectivity Km,"DAT; DAT, ratio between enantiomers, given as for (S) or for 2 (second-eluting)",1.31-fold for (S)
same,Vmax ± SEM,DAT,3085 ± 81 pmol × mg Protein^−1 × min^−1
same,Km,DAT,22.2 ± 2.6 µM
same,Vmax ± SEM,NET,262 ± 15 pmol × mg Protein^−1 × min^−1
same,Clint ± SEM,NET; NET,113.3 ± 47.6 mL × g Protein^−1 × min^−1
same,Stereoselectivity ClInt,NET; [10],1.05-fold for (S)
same,Stereoselectivity Vmax,NET; [10],1.38-fold for (S) **
same,Stereoselectivity Km,"NET; NET, ratio between enantiomers, given as for (S) or for 2 (second-eluting)",1.32-fold for (S)
same,Km,NET,2.31 ± 0.84 µM
same,Transporter selectivity,OCT2 A270S variant,1.21 fold
same,Vmax ± SEM,"OCT1; HEK293 cells overexpressing human OCT1, racemic substrate, two minutes, net uptake",1524 ± 330 pmol × mg Protein^−1 × min^−1
same,Clint ± SEM,OCT1; OCT1,0.45 ± 0.28 mL × g Protein^−1 × min^−1
same,Stereoselectivity ClInt,OCT1; [11],1.06-fold for (S)
same,Stereoselectivity Vmax,OCT1; [11],1.16-fold for (S)
same,Stereoselectivity Km,"OCT1; OCT1, ratio between enantiomers, given as for (S) or for 2 (second-eluting)",1.09-fold for (S)
same,Km,"OCT1; read-out: Km ± SEM, HEK293 cells overexpressing human OCT1, racemic substrate, two minutes, net uptake minus empty vector control",3390 ± 1420 µM
same,Stereoselectivity ClInt,SERT [5],1.78-fold for (R)
same,Vmax ± SEM,"OCT3; HEK293 cells overexpressing human OCT3, racemic substrate, two minutes, net uptake",3683 ± 360 pmol × mg Protein^−1 × min^−1
same,Clint ± SEM,OCT3; OCT3,6.61 ± 3.02 mL × g Protein^−1 × min^−1
same,Stereoselectivity Vmax,OCT3; [8],1.01-fold for (R)
same,Stereoselectivity Km,OCT3; [8],1.07-fold for (R)
same,Stereoselectivity ClInt,"OCT3; OCT3, ratio between enantiomers, given as for (S) or for 2",1.07-fold for (S)
same,Km,"OCT3; read-out: Km ± SEM, HEK293 cells overexpressing human OCT3, racemic substrate, two minutes, net uptake minus empty vector control",557 ± 200 µM

# From paper PMC9599461, “Stereoselectivity in the Membrane Transport of Phenylethylamine Derivatives by Human Monoamine Transporters and Organic Cation Transporters 1, 2, and 3” (Biomolecules, 2022)
